Test results reported in patent publication US11613531B2, “Inhibitors of RHO associated coiled-coil containing protein kinase” (Kadmon Corporation, LLC, priority 2017, dated 2023).
“And” between values parts separate entries of the source, which are not always exact repeats. Identical values can stand only once. Like-named read-outs stand apart in the source and are kept apart here.

What was measured:
[1] = biological target: Recombinant ROCK1 (amino acids 1-535) (Homo sapiens (Human), UniProt Q13464); assay: Z′-Lyte kinase assay, ROCK1; type: biochemical; details: for inhibition at 0.5 µM: 0.5 μM compound; for inhibition at 0.5 µM / inhibition at 3 µM: read-out: ROCK1 % inh. @ [conc]; for inhibition at 3 µM: 3 μM compound
Sequence of Recombinant ROCK1 (amino acids 1-535) (Q13464 1-535): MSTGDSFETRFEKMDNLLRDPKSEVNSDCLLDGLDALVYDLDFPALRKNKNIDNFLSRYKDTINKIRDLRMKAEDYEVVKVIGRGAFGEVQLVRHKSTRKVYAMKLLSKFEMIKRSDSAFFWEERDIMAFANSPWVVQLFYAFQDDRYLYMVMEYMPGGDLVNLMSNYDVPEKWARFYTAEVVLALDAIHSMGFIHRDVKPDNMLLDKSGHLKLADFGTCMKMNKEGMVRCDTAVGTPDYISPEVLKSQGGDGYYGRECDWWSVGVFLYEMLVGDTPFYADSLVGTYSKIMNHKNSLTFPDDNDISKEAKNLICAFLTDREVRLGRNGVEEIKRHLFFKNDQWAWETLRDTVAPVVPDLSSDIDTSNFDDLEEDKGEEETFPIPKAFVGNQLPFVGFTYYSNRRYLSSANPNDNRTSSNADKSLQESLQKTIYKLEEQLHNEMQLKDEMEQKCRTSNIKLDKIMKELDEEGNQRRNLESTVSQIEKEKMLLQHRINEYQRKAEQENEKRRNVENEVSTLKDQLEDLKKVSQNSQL
Method: Determination of Compound's ROCK Inhibitory Activity In Vitro (Z'Lyte Assay).
Recombinant ROCK1 (amino acids 1-535) and ROCK2 (amino acids 1-552) proteins were purchased from ThermoFisher Scientific. Compound's activities were measured by Z′-lyte kinase kit (ThermoFisher Scientific) and IC50 was calculated
In vitro activities for the compounds were measured with Z′-lyte kinase kit (ThermoFisher Scientific). The percent inhibition rate was calculated by normalizing the kinase activity value obtained with 1 μM compound treatment against DMSO control value and then applied to the formula, [1-(compound/DMSO)]×100%. IC50s were calculated using the nonlinear regression curve fit function of the GraphPad Prism software with kinase activities data measured with 9 points 2-fold serial dilution of compounds treatment. In cell pMLC IC50s were calculated with data obtained from A7R5 cell experiments. A7R5 cells were treated with 9 points 2-fold serial dilution of compounds and ppMlc (T18/S19) levels were determined to calculate cellular IC50 values of the compounds using the nonlinear regression curve fit function of the GraphPad Prism software. NIH3T3 cells stably expressing ACTA2-promoter-driven-luciferase were applied to measure ROCK compounds functional IC50s in cells. Cells were plated in 96 well plates to confluence and treated with 9 points serial dilution of compounds in combination with TGFβ1 for 24 hr. Luciferase activities were measured and compound's IC50s were calculated using the nonlinear regression curve fit function of the GraphPad Prism software.

[2] = biological target: Recombinant ROCK2 (amino acids 1-552) (Homo sapiens (Human), UniProt O75116); assay: Z′-Lyte kinase assay, ROCK2; type: biochemical; details: for inhibition at 0.5 µM: 0.5 μM compound; for inhibition at 3 µM: 3 μM compound
Sequence of Recombinant ROCK2 (amino acids 1-552) (O75116 1-552): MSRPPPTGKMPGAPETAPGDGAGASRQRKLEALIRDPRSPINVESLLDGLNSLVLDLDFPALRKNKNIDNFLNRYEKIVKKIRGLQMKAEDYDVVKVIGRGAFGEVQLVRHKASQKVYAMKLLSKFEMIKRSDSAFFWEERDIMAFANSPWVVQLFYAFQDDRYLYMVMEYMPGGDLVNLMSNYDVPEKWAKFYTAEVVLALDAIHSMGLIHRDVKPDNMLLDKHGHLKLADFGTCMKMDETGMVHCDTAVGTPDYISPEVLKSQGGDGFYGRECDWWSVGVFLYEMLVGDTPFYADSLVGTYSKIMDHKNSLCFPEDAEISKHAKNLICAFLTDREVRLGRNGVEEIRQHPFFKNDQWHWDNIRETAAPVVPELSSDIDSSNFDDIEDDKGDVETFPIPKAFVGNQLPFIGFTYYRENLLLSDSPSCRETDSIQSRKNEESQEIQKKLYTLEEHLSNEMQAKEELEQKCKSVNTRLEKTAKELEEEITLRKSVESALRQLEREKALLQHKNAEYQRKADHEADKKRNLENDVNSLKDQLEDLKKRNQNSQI
In short: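 Recombinant human ROCK1 (aa 1-535) or ROCK2 (aa 1-552) activity read by Z′-Lyte kinase assay. Percent inhibition at 1 μM compound was normalized to DMSO control; IC50 from 9-point 2-fold serial dilutions by nonlinear regression.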

[3] = test system: ppMlc (T18/S19) levels in A7R5 cells; assay: A7R5 in-cell ELISA (pMLC); type: cell-based, Rat; details: for inhibition at 1 µM / inhibition at 10 µM / IC50: Rattus norvegicus, A7R5, A7R5 cells; for inhibition at 1 µM: 1 μM compound; for inhibition at 1 µM / inhibition at 10 µM: read-out: pMLC % inh A7R5 @ [conc]
In short: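 A7R5 rat aortic smooth muscle cells seeded 24 h, then treated 90 min with a 9-point 2-fold compound dilution series. Fixed cells probed for ppMlc (T18/S19) by colorimetric in-cell ELISA; cellular IC50 from nonlinear regression curve fit.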

[4] = read-out: ROCK2 % inh. @ [conc]
[5] = 9 points 2-fold serial dilution

Row | Structure (SMILES) | IC50 [1, 5] | IC50 [2, 5] | inhibition at 10 µM ([3]; 10 μM compound) | IC50 ([3]; ppMlc (T18/S19)) | inhibition at 3 µM [1] | inhibition at 3 µM [2, 4] | further results
1 | CCCC1CNCCN1c1nccc(Nc2ccc3[nH]ncc3c2)n1 (stereo not shown) [Example 69, N-(2-(2-propylpiperazin-1-yl)pyrimidin-4-yl)-1H-indazol-5-amine] | – | – | – | – | – | – | inhibition at 0.5 µM [1]: 67%; inhibition at 0.5 µM [2, 4]: 52%; inhibition at 1 µM [3]: 19.3%
2 | CC(C)C1CN(c2nccc(Nc3ccc(-c4ccncc4)cc3)n2)CCCN1 (stereo not shown) [Example 251, 2-(3-isopropyl-1,4-diazepan-1-yl)-N-(4-(pyridin-4-yl)phenyl)pyrimidin-4-amine] | 57 nM | 160 nM | 66.9% | 614 nM | – | – | –
3 | CC1CN(c2nccc(Nc3ccc4[nH]ncc4c3)n2)CCN1 (stereo not shown) [Example 225, N-(2-(3-methylpiperazin-1-yl)pyrimidin-4-yl)-1H-indazol-5-amine] | – | 98 nM | 78% | 532 nM | 80.9% | 98.3% | –
4 | Cc1cc(Nc2ccc(-c3ccncc3)cc2)nc(N2CCCNC(C)C2)n1 (stereo not shown) [Example 247, 6-methyl-2-(3-methyl-1,4-diazepan-1-yl)-N-(4-(pyridin-4-yl)phenyl)pyrimidin-4-amine] | 132 nM | 407 nM | – | 1960 nM | 100% | 100% | –
5 | CCC1CN(c2nccc(Nc3ccc(-c4ccncc4)cc3)n2)CCCN1 (stereo not shown) [Example 248, 2-(3-ethyl-1,4-diazepan-1-yl)-N-(4-(pyridin-4-yl)phenyl)pyrimidin-4-amine] | 36 nM | 43.9 nM | – | 968 nM | 100% | 100% | –
6 | c1cc2[nH]ncc2cc1Nc1nc(N2C3CNCC2C3)nc2c1COC2 [Example 283, 2-(3,6-diazabicyclo[3.1.1]heptan-6-yl)-N-(1H-indazol-5-yl)-5,7-dihydrofuro[3,4-d]pyrimidin-4-amine] | – | – | – | – | – | – | inhibition at 0.5 µM [1]: 101%; IC50 [2]: < 0.1 nM; inhibition at 0.5 µM [2, 4]: 101%; inhibition at 1 µM [3]: 25.8%
7 | CCC1CCN(c2nccc(Nc3ccc(-c4ccncc4)cc3)n2)CCN1 (stereo not shown) [Example 249, 2-(5-ethyl-1,4-diazepan-1-yl)-N-(4-(pyridin-4-yl)phenyl)pyrimidin-4-amine] | > 1000 nM | > 1000 nM | 33.6% | – | – | – | –
8 | c1cc(-c2ccc(Nc3ccnc(N4CCCNCC4)n3)cc2)ccn1 [Example 273, 2-(1,4-diazepan-1-yl)-N-(4-(pyridin-4-yl)phenyl)pyrimidin-4-amine] | – | – | 44.1% | – | 89.1% | 85.6% | –
9 | CC1CN(c2nccc(Nc3ccc4[nH]ncc4c3)n2)CCCN1 (stereo not shown) [Example 203, N-(2-(3-methyl-1,4-diazepan-1-yl)pyrimidin-4-yl)-1H-indazol-5-amine] | 46 nM | 57 nM | 63.5% | 561 nM | 89.1% | 98% | –
10 | N[C@@H]1CCN(c2nccc(Nc3ccc4[nH]ncc4c3)n2)C1 [Example 231, (R)—N-(2-(3-aminopyrrolidin-1-yl)pyrimidin-4-yl)-1H-indazol-5-amine] | – | – | – | – | – | – | IC50 [1]: > 10000 nM; IC50 [2]: 276 nM; pMLC % inh A7R5 @ [conc] ([3]; A7R5 cells, 10 μM compound): 94.24, % and 63.4%; IC50 [3]: 335 nM
11 | COc1cnc(N2CCCNCC2)nc1Nc1ccc2[nH]ncc2c1 [Example 7, N-(2-(1,4-diazepan-1-yl)-5-methoxypyrimidin-4-yl)-1H-indazol-5-amine] | 65 nM | 107 nM | 98.3% | 460 nM | – | – | inhibition at 1 µM ([2]; 1 μM compound, read-out: ROCK2 % inh. @ [conc]): 96%
12 | CC(C)C1CCN(c2nccc(Nc3ccc4[nH]ncc4c3)n2)CCN1 (stereo not shown) [Example 61, N-(2-(5-isopropyl-1,4-diazepan-1-yl)pyrimidin-4-yl)-1H-indazol-5-amine] | > 1000 nM | > 1000 nM | – | 8170 nM | 100% | 100% | –
13 | CCC1CN(c2nccc(Nc3ccc4[nH]ncc4c3)n2)CCCN1 (stereo not shown) [Example 62, N-(2-(3-ethyl-1,4-diazepan-1-yl)pyrimidin-4-yl)-1H-indazol-5-amine] | 179 nM | 177 nM | – | 1300 nM | 100% | 100% | –
14 | c1cc(Nc2ccc3[nH]ncc3c2)nc(N2CC3CNCC3C2)n1 (stereo not shown) [Example 210, N-(2-(hexahydropyrrolo[3,4-c]pyrrol-2(1H)-yl)pyrimidin-4-yl)-1H-indazol-5-amine] | – | – | 73.4% | 589 nM | 41.9% | 0% | –
15 | Clc1cnc(N2CCNCC2)nc1Nc1ccc2[nH]ncc2c1 [Example 178, N-(5-chloro-2-(piperazin-1-yl)pyrimidin-4-yl)-1H-indazol-5-amine] | 388 nM | 159 nM | 47.5% | 706 nM | – | – | –
16 | CC1CCN(c2nccc(Nc3ccc4[nH]ncc4c3)n2)CCN1 (stereo not shown) [Example 57, N-(2-(5-methyl-1,4-diazepan-1-yl)pyrimidin-4-yl)-1H-indazol-5-amine] | – | – | 60.6% | 1220 nM | 17.4% | 93.4% | –
17 | Cc1cc(Nc2ccc3[nH]ncc3c2)nc(N2CCCNCC2)n1 [Example 5, N-(2-(1,4-diazepan-1-yl)-6-methylpyrimidin-4-yl)-1H-indazol-5-amine] | – | 54 nM | 86% | 63 nM | 98.3% | 102% | –
18 | c1cc(-c2ccc(Nc3nc(N4C5CCC4CNC5)nc4c3COC4)cc2)ccn1 [Example 281, 2-(3,8-diazabicyclo[3.2.1]octan-8-yl)-N-(4-(pyridin-4-yl)phenyl)-5,7-dihydrofuro[3,4-d]pyrimidin-4-amine] | – | – | – | – | – | – | inhibition at 0.5 µM [1]: 14%; IC50 [2]: 2570 nM; inhibition at 0.5 µM [2, 4]: 10%; inhibition at 1 µM [3]: 10.4%
19 | CC1CN(c2nccc(Nc3ccc(-c4ccncc4)cc3)n2)CCCN1 (stereo not shown) [Example 43, 2-(3-methyl-1,4-diazepan-1-yl)-N-(4-(pyridin-4-yl)phenyl)pyrimidin-4-amine] | 135 nM | 120 nM | – | 730 nM | 99% | 98.8% | –
20 | CC1CNCCCN1c1nccc(Nc2ccc3[nH]ncc3c2)n1 (stereo not shown) [Example 238, N-(2-(2-methyl-1,4-diazepan-1-yl)pyrimidin-4-yl)-1H-indazol-5-amine] | 55 nM | 17 nM | 70% | 215 nM | – | – | –
21 | COc1cccc(CNC2CCCN(c3nccc(Nc4ccc5[nH]ncc5c4)n3)C2)c1 (stereo not shown) [Example 233, N-(2-(3-((3-methoxybenzyl)amino)piperidin-1-yl)pyrimidin-4-yl)-1H-indazol-5-amine] | – | – | 95.1% | – | – | – | IC50 [1]: > 10000 nM; IC50 [2]: 217 nM; IC50 [3]: 712 nM
22 | c1cc2[nH]ncc2cc1Nc1nc(N2CC3CC2CN3)nc2c1COC2 (stereo not shown) [Example 284, 2-(2,5-diazabicyclo[2.2.1]heptan-2-yl)-N-(1H-indazol-5-yl)-5,7-dihydrofuro[3,4-d]pyrimidin-4-amine] | – | – | – | – | – | – | inhibition at 0.5 µM [1]: 25%; inhibition at 0.5 µM [2, 4]: 30%; inhibition at 1 µM [3]: 24.1%
23 | c1ccc2c(Nc3ccc(-c4ccncc4)cc3)nc(N3CCCNCC3)nc2c1 [Example 272, 2-(1,4-diazepan-1-yl)-N-(4-(pyridin-4-yl)phenyl)quinazolin-4-amine] | – | – | 53.3% | – | 88.5% | 85.8% | –
24 | CC1CNCCN1c1nccc(Nc2ccc3[nH]ncc3c2)n1 (stereo not shown) [Example 232, N-(2-(2-methylpiperazin-1-yl)pyrimidin-4-yl)-1H-indazol-5-amine] | 75 nM | 22 nM | 93% | 129 nM | 100% | 104% | –
25 | Cc1cnc(N2CCNCC(C)C2)nc1Nc1ccc2[nH]ncc2c1 (stereo not shown) [Example 196, N-(5-methyl-2-(6-methyl-1,4-diazepan-1-yl)pyrimidin-4-yl)-1H-indazol-5-amine] | – | – | – | – | – | – | inhibition at 0.5 µM [1]: 37%; inhibition at 0.5 µM [2, 4]: 39%; inhibition at 1 µM [3]: 17.6%
26 | c1cc2[nH]ncc2cc1Nc1nc(N2CC3CCC(C2)N3)nc2c1COC2 [Example 39, 2-(3,8-diazabicyclo[3.2.1]octan-3-yl)-N-(1H-indazol-5-yl)-5,7-dihydrofuro[3,4-d]pyrimidin-4-amine] | – | – | – | – | – | – | inhibition at 0.5 µM [1]: 67%; inhibition at 0.5 µM [2, 4]: 64%; inhibition at 1 µM [3]: 6.6%
